Measurements: patent US20070128217A1 (priority 2003, published 2007)

Columns and labels:
[1] = test system: antibodies in sera from SARS patients (sera 1a, 1b, 2, 6, 37, 62, London, SARS-yellow, SARS-green); assay type: binding, human; design: Binding of serum 6 to linear peptides of protein X1 of SARS-CoV Urbani / Binding of serum 37 to linear peptides of protein X1 of SARS-CoV Urbani / Binding of serum 6 to looped/cyclic peptide (PEPSCAN-ELISA) / Binding of serum 37 to looped/cyclic peptide (PEPSCAN-ELISA) / Binding of serum 37 to looped/cyclic peptides of protein X1 of SARS-CoV Urbani / Binding of serum 6 to linear peptides of protein X2 / Binding of serum 37 to linear peptides of protein X2 / Binding of serum 37 to looped/cyclic peptides of protein X2 of SARS-CoV Urbani / Binding of serum 6 to linear peptides of protein M of SARS-CoV Urbani / Binding of serum 37 to linear peptides of protein M of SARS-CoV Urbani / Binding of serum 6 to looped/cyclic peptides of protein M of SARS-CoV Urbani / Binding of serum 37 to looped/cyclic peptides of protein M of SARS-CoV Urbani / Binding of serum 6 to linear peptides of protein X3 of SARS-CoV Urbani / Binding of serum 37 to linear peptides of protein X3 of SARS-CoV Urbani / Binding of serum 37 to looped/cyclic peptides of protein X3 of SARS-CoV Urbani / Binding of serum 6 to linear peptides of protein X4 of SARS-CoV Urbani / Binding of serum 37 to linear peptides of protein X4 of SARS-CoV Urbani / Binding of serum 37 to looped/cyclic peptides of protein X4 of SARS-CoV Urbani / Binding of serum 6 to linear peptides of protein X5 of SARS-CoV Urbani / Binding of serum 37 to linear peptides of protein X5 of SARS-CoV Urbani / Binding of serum 37 to looped/cyclic peptides of protein X5 of SARS-CoV Urbani / Binding of serum 6 to linear peptides of protein N of SARS-CoV Urbani / Binding of serum 37 to linear peptides of protein N of SARS-CoV Urbani / Binding of serum 6 to linear peptide (PEPSCAN-ELISA) / Binding of serum 1a to looped/cyclic peptides of protein N of SARS-CoV Urbani / Binding of serum 1b to looped/cyclic peptides of protein N of SARS-CoV Urbani / Binding of serum 2 to looped/cyclic peptides of protein N of SARS-CoV Urbani / Binding of serum 6 to looped/cyclic peptides of protein N of SARS-CoV Urbani / Binding of serum 37 to looped/cyclic peptides of protein N of SARS-CoV Urbani / Binding of serum 62 to looped/cyclic peptides of protein N of SARS-CoV Urbani / Binding of serum London to looped/cyclic peptides of protein N of SARS-CoV Urbani / Binding of serum SARS-green to looped/cyclic peptides of protein N of SARS-CoV Urbani: unit not given here
[2] = test system: control sera (pooled serum of ten healthy LUMC hospital workers; commercial negative donor pooled serum from the Dutch bloodbank); assay type: binding, human; design: Binding of Control serum LUMC to linear peptides / Binding of Control serum Blood-bank to linear peptides / Binding of Control serum LUMC to looped peptides / Binding of Control Serum Blood-Bank to Looped peptides / Binding of Control serum LUMC to linear peptides of the protein M of SARS-CoV Urbani / Binding of Control serum Blood-bank to linear peptides of the protein M of SARS-CoV Urbani / Binding of Control serum LUMC to looped peptides of the protein M of SARS-CoV Urbani / Binding of Control Serum Blood-Bank to Looped peptides of the protein M of SARS-CoV Urbani: unit not given here
[3] = test system: rabbit serum obtained by immunizing a rabbit with the SARS-CoV strain Frankfurt 1; assay type: binding; design: Binding of a rabbit serum to linear peptides / Binding of a rabbit serum to looped peptides / Rabbit serum linear peptides / Rabbit serum looped peptides / Binding of a rabbit serum to linear peptides of protein N of SARS-CoV Urbani (Rabbit serum linear peptides) / Binding of a rabbit serum to looped/cyclic peptides of protein N of SARS-CoV Urbani (Rabbit serum looped peptides): unit not given here

YMAISPKFTTSLSLH
Binding of serum 1a to linear peptides of protein X2 [1]: 0.7 | Binding of serum 1a to looped/cyclic peptides of protein X2 of SARS-CoV Urbani [1]: 0.6 | Binding of serum 1b to linear peptides of protein X2 [1]: 0.6 | Binding of serum 1b to looped/cyclic peptides of protein X2 of SARS-CoV Urbani [1]: 0.6 | Binding of serum 2 to linear peptides of protein X2 [1]: 0.4 | Binding of serum 2 to looped/cyclic peptides of protein X2 of SARS-CoV Urbani [1]: 0.4 | Binding of serum 6 to linear peptides of protein X2 [1]: 0.4 | Binding of serum 6 to looped/cyclic peptides of protein X2 of SARS-CoV Urbani [1]: 0.5 | Binding of serum 37 to linear peptides of protein X2 [1]: 0.6 | Binding of serum 37 to looped/cyclic peptides of protein X2 of SARS-CoV Urbani [1]: 0.5 | Binding of serum 62 to linear peptides of protein X2 [1]: 0.6 | Binding of serum 62 to looped/cyclic peptides of protein X2 of SARS-CoV Urbani [1]: 0.6 | Binding of serum London to linear peptides of protein X2 [1]: 0.4 | Binding of serum London to looped/cyclic peptides of protein X2 of SARS-CoV Urbani [1]: 0.4 | Binding of serum SARS-green to linear peptides of protein X2 [1]: 0.5 | Binding of serum SARS-green to looped/cyclic peptides of protein X2 of SARS-CoV Urbani [1]: 0.4 | Binding of serum SARS-yellow to linear peptides of protein X2 [1]: 0.6 | Binding of serum SARS-yellow to looped/cyclic peptides of protein X2 of SARS-CoV Urbani [1]: 0.4 | Binding of Control Serum Blood-Bank to Looped peptides [2]: 0.7 | Binding of Control serum Blood-bank to linear peptides [2]: 0.7 | Binding of Control serum LUMC to linear peptides [2]: 0.4 | Binding of Control serum LUMC to looped peptides [2]: 0.7 | Binding of a rabbit serum to linear peptides [3]: 0.3 | Binding of a rabbit serum to looped peptides [3]: 0.5

YNRYRIGNYKLNTDH
Binding of serum 1a to linear peptides of protein M of SARS-CoV Urbani [1]: 0.7 | Binding of serum 1a to looped/cyclic peptides of protein M of SARS-CoV Urbani [1]: 0.8 | Binding of serum 1b to linear peptides of protein M of SARS-CoV Urbani [1]: 0.6 | Binding of serum 1b to looped/cyclic peptides of protein M of SARS-CoV Urbani [1]: 0.7 | Binding of serum 2 to linear peptides of protein M of SARS-CoV Urbani [1]: 0.4 | Binding of serum 2 to looped/cyclic peptides of protein M of SARS-CoV Urbani [1]: 0.7 | Binding of serum 6 to linear peptides of protein M of SARS-CoV Urbani [1]: 0.5 | Binding of serum 6 to looped/cyclic peptides of protein M of SARS-CoV Urbani [1]: 1.1 | Binding of serum 37 to linear peptides of protein M of SARS-CoV Urbani [1]: 0.5 | Binding of serum 37 to looped/cyclic peptides of protein M of SARS-CoV Urbani [1]: 0.5 | Binding of serum 62 to linear peptides of protein M of SARS-CoV Urbani [1]: 0.4 | Binding of serum 62 to looped/cyclic peptides of protein M of SARS-CoV Urbani [1]: 0.6 | Binding of serum London to linear peptides of protein M of SARS-CoV Urbani [1]: 0.5 | Binding of serum London to looped/cyclic peptides of protein M of SARS-CoV Urbani [1]: 0.6 | Binding of serum SARS-green to linear peptides of protein M of SARS-CoV Urbani [1]: 0.4 | Binding of serum SARS-green to looped/cyclic peptides of protein M of SARS-CoV Urbani [1]: 0.3 | Binding of serum SARS-yellow to linear peptides of protein M of SARS-CoV Urbani [1]: 0.1 | Binding of serum SARS-yellow to looped/cyclic peptides of protein M of SARS-CoV Urbani [1]: 0.7 | Binding of Control Serum Blood-Bank to Looped peptides of the protein M of SARS-CoV Urbani [2]: 0.8 | Binding of Control serum Blood-bank to linear peptides of the protein M of SARS-CoV Urbani [2]: 0.5 | Binding of Control serum LUMC to linear peptides of the protein M of SARS-CoV Urbani [2]: 0.6 | Binding of Control serum LUMC to looped peptides of the protein M of SARS-CoV Urbani [2]: 0.9 | Rabbit serum linear peptides [3]: 0.3 | Rabbit serum looped peptides [3]: 0.5

YNSVTDTIVVTEGDG
Binding of serum 1a to linear peptides of protein X1 of SARS-CoV Urbani [1]: 0.6 | Binding of serum 1a to looped/cyclic peptides of protein X1 of SARS-CoV Urbani [1]: 0.4 | Binding of serum 1b to linear peptides of protein X1 of SARS-CoV Urbani [1]: 0.5 | Binding of serum 1b to looped/cyclic peptides of protein X1 of SARS-CoV Urbani [1]: 0.3 | Binding of serum 2 to linear peptides of protein X1 of SARS-CoV Urbani [1]: 0.4 | Binding of serum 2 to looped/cyclic peptides of protein X1 of SARS-CoV Urbani [1]: 0.2 | Binding of serum 6 to linear peptides of protein X1 of SARS-CoV Urbani [1]: 0.4 | Binding of serum 6 to looped/cyclic peptides of protein X1 of SARS-CoV Urbani [1]: 0.2 | Binding of serum 37 to linear peptides of protein X1 of SARS-CoV Urbani [1]: 0.5 | Binding of serum 37 to looped/cyclic peptides of protein X1 of SARS-CoV Urbani [1]: 0.4 | Binding of serum 62 to linear peptides of protein X1 of SARS-CoV Urbani [1]: 0.5 | Binding of serum 62 to looped/cyclic peptides of protein X1 of SARS-CoV Urbani [1]: 0.3 | Binding of serum London to linear peptides of protein X1 of SARS-CoV Urbani [1]: 0.2 | Binding of serum London to looped/cyclic peptides of protein X1 of SARS-CoV Urbani [1]: 0.2 | Binding of serum SARS-green to linear peptides of protein X1 of SARS-CoV Urbani [1]: 0.3 | Binding of serum SARS-green to looped/cyclic peptides of protein X1 of SARS-CoV Urbani [1]: 0.3 | Binding of serum SARS-yellow to linear peptides of protein X1 of SARS-CoV Urbani [1]: 0.4 | Binding of serum SARS-yellow to looped/cyclic peptides of protein X1 of SARS-CoV Urbani [1]: 0.3 | Binding of Control Serum Blood-Bank to Looped peptides [2]: 0.3 | Binding of Control serum Blood-bank to linear peptides [2]: 0.4 | Binding of Control serum LUMC to linear peptides [2]: 0.4 | Binding of Control serum LUMC to looped peptides [2]: 0.4 | Binding of a rabbit serum to linear peptides [3]: 0.1 | Binding of a rabbit serum to looped peptides [3]: 0.5
